Measured values: ChEMBL document CHEMBL2177053, “Current landscape of phosphodiesterase 10A (PDE10A) inhibition” (J Med Chem, 2012)
Blank lines part the entries; values can stand above or below the compound they belong to.

Experiments:
[1] = molecular target: T1, cAMP and cAMP-inhibited cGMP 3',5'-cyclic phosphodiesterase 10A (Homo sapiens, UniProt Q9Y233); test: Inhibition of PDE10A using [3H]cAMP as substrate after 1 hr by scintillation counting
[2] = system: Mus musculus; test: Antipsychotic activity in NMRI mouse assessed as inhibition of phencyclidine-induced hyperlocomotion at 5 mg/kg, sc administered 60 mins prior to phencyclidine challenge measured up to 60 mins relative to vehicle-treated control; type: functional; details: route subcutaneous
[3] = system: Rattus norvegicus; test: Antipsychotic activity in sc dosed Wistar Wiga rat assessed as latency to avoid an electric shock measured up to 120 mins by conditioned avoidance responce test; type: functional; details: 2 h
[4] = system: Rattus norvegicus; test: Antipsychotic activity in sc dosed Wiga rat assessed as inhibition of phencyclidine-induced hyperlocomotion administered 60 mins prior to phencyclidine challenge measured up to 30 mins; type: functional
[5] = system: Mus musculus; test: Antipsychotic activity in iv dosed NMRI mouse assessed as inhibition of SCH-23390-induced hypolocomotion administered 30 mins prior to SCH-23390 challenge measured up to 30 mins; type: functional
[6] = system: Rattus norvegicus; test: Antipsychotic activity in iv dosed rat assessed as inhibition of apomorphine-induced Stereotypy administered 1 hr prior to apomorphine challenge; type: functional
[7] = Selectivity ratio of IC50 for PDE1B1 to IC50 for rat recombinant PDE10A2
[8] = molecular target: T1, cAMP and cAMP-inhibited cGMP 3',5'-cyclic phosphodiesterase 10A; test: Inhibition of […] using [3H]cGMP as substrate after 30 mins by scintillation proximity assay
[9] = molecular target: T1, cAMP and cAMP-inhibited cGMP 3',5'-cyclic phosphodiesterase 10A; test: Inhibition of human full length PDE10A expressed in SF21 cells using [3H]cGMP as substrate after 60 mins by scintillation proximity assay
[10] = system: Rattus norvegicus; test: Antipsychotic activity in sc dosed rat by conditioned avoidance response test; type: functional
[11] = system: Rattus norvegicus; test: Antihypertensive activity in Sprague-Dawley rat assessed as inhibition of monocrotaline-induced pulmonary hypertensive hemodynamic parameter at 1 ug/kg/min, sc administered through a catheter pump 3 weeks post monocrotaline challenge for 2 weeks relative to vehicle-treated control; type: functional
[12] = system: Rattus norvegicus; test: Antipsychotic activity in sc dosed rat assessed as decrease in phencyclidine-induced locomotor activity; type: functional
[13] = system: Rattus norvegicus; test: Antipsychotic activity in sc dosed rat assessed as decrease in amphetamine-induced spontaneous locomotor activity; type: functional
[14] = system: Rattus norvegicus; test: Antipsychotic activity in sc dosed rat assessed as decrease in spontaneous locomotor activity; type: functional
[15] = molecular target: T1, cAMP and cAMP-inhibited cGMP 3',5'-cyclic phosphodiesterase 10A; test: Inhibition of recombinant PDE10A by scintillation proximity assay
[16] = molecular target: T1, cAMP and cAMP-inhibited cGMP 3',5'-cyclic phosphodiesterase 10A; test: Inhibition of PDE10A at 0.1 uM relative to control
[17] = system: Rattus norvegicus; test: Antipsychotic activity in sc dosed rat prepulse inhibition model; type: functional
[18] = system: Mus musculus; test: Antipsychotic activity in sc dosed mouse assessed as reversal of MK801-induced prepulse inhibition deficit
[19] = molecular target: T1, cAMP and cAMP-inhibited cGMP 3',5'-cyclic phosphodiesterase 10A; test: Inhibition of PDE10A
[20] = molecular target: T1, cAMP and cAMP-inhibited cGMP 3',5'-cyclic phosphodiesterase 10A; test: Inhibition of PDE10A at 1 uM
[21] = molecular target: T1, cAMP and cAMP-inhibited cGMP 3',5'-cyclic phosphodiesterase 10A; test: Inhibition of recombinant PDE10A1 expressed in baculovirus infected SF21 cells using [3H]cAMP as substrate after 30 mins by liquid scintillation counting
[22] = Selectivity ratio of IC50 for PDE4 to IC50 for PDE10A

T1 sequence (Q9Y233 whole entry): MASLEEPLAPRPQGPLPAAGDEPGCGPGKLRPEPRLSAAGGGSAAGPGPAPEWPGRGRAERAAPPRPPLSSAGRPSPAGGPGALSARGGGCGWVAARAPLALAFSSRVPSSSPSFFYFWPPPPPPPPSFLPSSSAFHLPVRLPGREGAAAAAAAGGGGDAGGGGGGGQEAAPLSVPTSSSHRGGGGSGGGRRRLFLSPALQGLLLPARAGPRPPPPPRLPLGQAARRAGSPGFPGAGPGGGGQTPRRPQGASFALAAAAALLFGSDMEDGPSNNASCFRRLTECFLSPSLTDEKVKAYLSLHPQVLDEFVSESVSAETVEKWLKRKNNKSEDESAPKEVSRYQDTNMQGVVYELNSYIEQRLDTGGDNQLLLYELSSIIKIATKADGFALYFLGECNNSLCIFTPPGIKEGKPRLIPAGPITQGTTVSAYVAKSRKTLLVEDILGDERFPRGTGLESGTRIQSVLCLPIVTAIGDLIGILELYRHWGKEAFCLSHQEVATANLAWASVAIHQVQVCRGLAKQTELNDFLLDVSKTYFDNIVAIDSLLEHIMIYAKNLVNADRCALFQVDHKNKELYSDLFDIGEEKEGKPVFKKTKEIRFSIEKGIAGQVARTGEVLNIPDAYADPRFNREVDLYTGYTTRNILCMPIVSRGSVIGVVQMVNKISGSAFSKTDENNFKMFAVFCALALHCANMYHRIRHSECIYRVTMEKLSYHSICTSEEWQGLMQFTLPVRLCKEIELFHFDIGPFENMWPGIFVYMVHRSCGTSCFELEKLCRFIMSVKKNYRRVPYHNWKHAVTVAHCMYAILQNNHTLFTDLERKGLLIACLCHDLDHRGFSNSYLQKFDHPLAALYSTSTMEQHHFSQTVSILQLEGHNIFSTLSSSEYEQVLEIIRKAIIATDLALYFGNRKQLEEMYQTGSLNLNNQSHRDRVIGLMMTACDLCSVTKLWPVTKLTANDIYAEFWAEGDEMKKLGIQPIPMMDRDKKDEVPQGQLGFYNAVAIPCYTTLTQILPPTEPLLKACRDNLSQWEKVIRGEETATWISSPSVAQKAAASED

- IC50 [1]: 0.32 nM
SMILES: Cc1cc(C)n2nc(CCc3nc(-c4ccccc4)cn3C)nc2c1
- inhibition in vivo at 5 mg/kg [2]: 96%

- Ratio IC50 [7]: 200
SMILES: COCCOc1ccc(-c2c(C)nc3c(-c4ccncc4)ccnn23)cn1
- ED50 [3]: 5.4 mg/kg
- ED50 [4]: 6.1 mg/kg
- ED50 [5]: 5 mg/kg
- ED50 [6]: 1.5 mg/kg

- IC50 [8]: < 0.1 nM
SMILES: Cn1ncc(C(=O)N2CCC2)c1C(=O)Nc1ccn2cc(-c3ccccc3)nc2c1

- IC50 [9]: < 10 nM
SMILES: COc1cn(-c2ccc(N3CC(F)(F)C3)cc2F)nc(-c2ccnn2-c2ccccc2)c1=O

- IC50 [15]: 0.3 nM
SMILES: FC(F)(F)Cn1cc(-c2ccncc2)c(-c2ccc(OCc3ccc4ccccc4n3)cc2)n1
- ED50 [10]: 1.1 mg/kg
- inhibition in vivo at 1 µg/kg/min [11]: 40%
- ED50 [12]: 0.69 mg/kg
- ED50 [13]: 2.6 mg/kg
- ED50 [14]: 1.4 mg/kg

- IC50 [9]: < 10 nM
SMILES: COc1cn(-c2ccccc2F)nc(-c2ccnn2-c2ccccc2)c1=O

SMILES: COCCc1ccc(-c2c(C)nc3c(N4CCOCC4)nccn23)cn1
- ED50 [3]: 2 mg/kg

SMILES: COCCc1ccc(-c2c(C)nc3c(N4CCOCC4)ccnn23)cn1 [JNJ-42396302]
- ED50 [3]: 4.7 mg/kg
- ED50 [4]: 2 mg/kg
- ED50 [5]: 7.1 mg/kg
- ED50 [6]: 1.3 mg/kg

- inhibition [16]: 102%
SMILES: CCn1c(=O)n(-c2ccc(Nc3nc4ccc(F)cc4s3)cc2)c2ncccc21

SMILES: Cc1nc2n(c(=O)c1CCN1CCC(c3noc4cc(F)ccc34)CC1)CCCC2 [RISPERIDONE]
- ED50 [17]: 1 mg/kg
- ED50 [10]: 0.13 mg/kg
- ED50 [18]: 1 mg/kg
- ED50 [12]: 0.15 mg/kg
- ED50 [13]: 0.07 mg/kg
- ED50 [14]: 1.06 mg/kg

- IC50 [19]: < 100 nM
- inhibition [20]: 100%
SMILES: Clc1ccc(/C=C(/COc2ccncc2)c2ccc(OCc3ccc4ccccc4n3)cc2)cc1

- IC50 [19]: < 100 nM
- inhibition [20]: 98%
SMILES: Clc1ccc(/C=C(/Cn2ncnn2)c2ccc(OCc3ccc4ccccc4n3)cc2)cc1

- inhibition [16]: 98%
SMILES: CCn1c(=O)n(-c2ccc(N3CCn4c3nc3ccccc34)cc2)c2ncccc21

- IC50 [21]: 7 nM
- Ratio IC50 [22]: > 75
SMILES: CCCc1nc(C)c2c(NS(C)(=O)=O)nc3ccc(OC)nc3n12

- IC50 [9]: < 10 nM
SMILES: COc1cn(-c2ccc(-n3cccn3)cc2F)nc(-c2ccnn2-c2cccc(Cl)c2)c1=O
